Patent publication US6706663B2, “Herbicidal 3-heterocyclic substituted benzisothiazole and benzisoxazole compounds” (Wyeth, priority 2000, dated 2004)

How the values were obtained:
CYPIR (Cyperus iria) = assay: Flooded paddy, postemergence weed control; format: in vivo; details: 0.1250 kg/ha into flood water; postemergence weeds; rated 3-4 weeks after treatment
Text: (§1) Results of herbicide evaluation are expressed on a rating scale (0-9). The scale is based upon a visual observation of plant stand, vigor, malformation, size, chlorosis and overall plant appearance as compared with a control.
(§2) Plastic containers containing weeds which are 3 to 5 cm tall and rice seedlings at the 1.5 to 2.5 leaf stage are flooded with water. The water is maintained at 1.5 to 3 cm above the soil surface for the duration of the experiment. Test compounds are applied as aqueous/acetone mixtures 50/50 v/v directly into the flood water to provide the equivalent of about 0.0320 to 0.2500 kg/ha of active ingredient. The treated containers are placed on greenhouse benches and cared for in accordance with conventional greenhouse procedures. Three to four weeks after treatment, the test is terminated and each container is examined and herbicidal effect rated according to the rating system provided in Example 87. The compounds evaluated are identified in Example 87 and plant species used are identified in Example 89.

[1] = system: GLXMAW (Soybean, Williams); assay: Postemergence herbicidal evaluation; format: in vivo, Glycine max, (L.) Merr. cv Williams; details: postemergence
Procedure, shortened: (§3)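 Seedlings grown about two weeks in flats, sprayed, then kept under standard greenhouse care. Rated visually 4–5 weeks after treatment on a 0–9 scale (stand, vigour, malformation, size, chlorosis, overall appearance) relative to untreated control; repeat tests averaged.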

[2] = system: ECHORC (Echinochloa oryzoides); assay: Flooded paddy, postemergence weed control; format: in vivo, Echinochloa oryzoides (Ard.) Fritsch.; details: postemergence weeds, rated 3-4 weeks after treatment
Text: as §1, §2

[3] = system: CYPSE (Cyperus serotinus); assay: Flooded paddy, postemergence weed control; format: in vivo, Rottb.; details: postemergence weeds, rated 3-4 weeks after treatment
Text: as §1, §2

[4] = system: IPOHE (Ipomoea hederacea); assay: Postemergence herbicidal evaluation; format: in vivo, (L.) Jacq.; details: postemergence
Procedure, shortened: as §3

[5] = system: TRZAWR (Wheat, Winter, cv Riband); assay: Preemergence herbicidal evaluation; format: in vivo, Triticum aestivum; details: rated 4-5 weeks after treatment
Procedure, shortened: (§4)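 Applied before emergence as an aqueous acetone spray over seeded soil. Read-out: 0–9 visual rating covering plant stand, vigor, size, chlorosis, malformation and overall appearance compared with control, taken 4–5 weeks after spraying.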

ZEAMX (Corn, Field) = assay: Postemergence herbicidal evaluation; format: in vivo, Zea mays, L.; details: postemergence
Procedure, shortened: as §3

[6] = system: SAGPY (Sagittaria pygmaea); assay: Flooded paddy, postemergence weed control; format: in vivo, L.; details: postemergence weeds, rated 3-4 weeks after treatment
Text: as §1, §2

ORYSAT (Rice, Tebonnet) [7] = assay: Preemergence herbicidal evaluation; format: in vivo, Oryza sativa, (L.) Tebonnet; details: rated 4-5 weeks after treatment
GALAP (Galium aparine) = assay: Postemergence herbicidal evaluation; format: in vivo; details: postemergence
Procedure, shortened: as §3

[8] = system: ECHCG (Echinochloa crus-galli); assay: Preemergence herbicidal evaluation; format: in vivo, (L.) Beau; details: rated 4-5 weeks after treatment
Procedure, shortened: as §4

SETVI (Setaria viridis) = assay: Preemergence herbicidal evaluation; format: in vivo, (L.) Beau; details: rated 4-5 weeks after treatment
Procedure, shortened: as §4

[9] = system: ABUTH (Abutilon theophrasti); assay: Postemergence herbicidal evaluation; format: in vivo, Medic.; details: postemergence
Procedure, shortened: as §3

[10] = system: AMBEL (Ambrosia artemisifolia); assay: Postemergence herbicidal evaluation; format: in vivo, L.; details: postemergence
Procedure, shortened: as §3

[11] = system: CASOB (Cassia obtusifolia); assay: Postemergence herbicidal evaluation; format: in vivo, L.; details: postemergence
Procedure, shortened: as §3

[12] = system: CHEAL (Chenopodium album); assay: Postemergence herbicidal evaluation; format: in vivo, L.; details: postemergence
Procedure, shortened: as §3

ORYSAT (Rice, Tebonnet) [13] = assay: Flooded paddy, post-transplant and postemergence rice tolerance; format: in vivo, Oryza sativa, (L.) Tebonnet; details: post-transplant rice, rated 3-4 weeks after treatment
Text: as §1, §2

[14] = system: MOOVA (Monochoria vaginalis); assay: Flooded paddy, postemergence weed control; format: in vivo, Presl.; details: postemergence weeds, rated 3-4 weeks after treatment
Text: as §1, §2

ORYSAT (Rice, Tebonnet) [15] = assay: Postemergence herbicidal evaluation; format: in vivo, Oryza sativa, (L.) Tebonnet; details: postemergence
Procedure, shortened: as §3

Cn1c(C(F)(F)F)cc(=O)n(-c2ccc3snc(-c4sccc4Cl)c3c2)c1=O [Compound 52, 3-[3-(3-chloro-2-thienyl)-1,2-benzisothiazol-5-yl]-1-methyl-6-(trifluoromethyl)uracil]
0.0: herbicide rating (0-9) SAGPY ([6]; 0.0320 kg/ha into flood water) | herbicide rating (0-9) SAGPY ([6]; 0.0620 kg/ha into flood water)
4.0: herbicide rating (0-9) SAGPY ([6]; 0.1250 kg/ha into flood water) | herbicide rating (0-9) ORYSAT (rice tolerance) (ORYSAT (Rice, Tebonnet) [13]; 0.0320 kg/ha into flood water) | ORYSAT herbicidal rating (ORYSAT (Rice, Tebonnet) [15]; rate 0.1250 kg/ha)
3.0: Preemergence herbicidal rating TRZAWR ([5]; Rate 0.2500 kg/ha) | GALAP herbicidal rating (GALAP (Galium aparine); rate 0.0620 kg/ha) | ORYSAT herbicidal rating (ORYSAT (Rice, Tebonnet) [15]; rate 0.0320 kg/ha) | ORYSAT herbicidal rating (ORYSAT (Rice, Tebonnet) [15]; rate 0.0620 kg/ha)
8.5: GLXMAW herbicidal rating ([1]; rate 0.1250 kg/ha) | Preemergence herbicidal rating ECHCG ([8]; Rate 0.1250 kg/ha)
7.5: GLXMAW herbicidal rating ([1]; rate 0.0320 kg/ha) | Preemergence herbicidal rating ECHCG ([8]; Rate 0.0620 kg/ha)
8.0: herbicide rating (0-9) ECHORC ([2]; 0.1250 kg/ha into flood water) | herbicide rating (0-9) CYPSE ([3]; 0.1250 kg/ha into flood water) | CASOB herbicidal rating ([11]; rate 0.1250 kg/ha)
1.0: Preemergence herbicidal rating TRZAWR ([5]; Rate 0.0620 kg/ha) | Preemergence herbicidal rating TRZAWR ([5]; Rate 0.1250 kg/ha) | Preemergence herbicidal rating ORYSAT (ORYSAT (Rice, Tebonnet) [7]; Rate 0.0620 kg/ha) | CASOB herbicidal rating ([11]; rate 0.0320 kg/ha)
3.5: ZEAMX herbicidal rating (ZEAMX (Corn, Field); rate 0.0320 kg/ha) | ZEAMX herbicidal rating (ZEAMX (Corn, Field); rate 0.0620 kg/ha) | Preemergence herbicidal rating ORYSAT (ORYSAT (Rice, Tebonnet) [7]; Rate 0.2500 kg/ha)
1.5: Preemergence herbicidal rating ORYSAT (ORYSAT (Rice, Tebonnet) [7]; Rate 0.1250 kg/ha)
5.0: ZEAMX herbicidal rating (ZEAMX (Corn, Field); rate 0.1250 kg/ha) | GALAP herbicidal rating (GALAP (Galium aparine); rate 0.0320 kg/ha) | CHEAL herbicidal rating ([12]; rate 0.0320 kg/ha) | CHEAL herbicidal rating ([12]; rate 0.0620 kg/ha)
7.0: GLXMAW herbicidal rating ([1]; rate 0.0620 kg/ha) | herbicide rating (0-9) CYPSE ([3]; 0.0620 kg/ha into flood water) | GALAP herbicidal rating (GALAP (Galium aparine); rate 0.1250 kg/ha) | CASOB herbicidal rating ([11]; rate 0.0620 kg/ha) | herbicide rating (0-9) ORYSAT (rice tolerance) (ORYSAT (Rice, Tebonnet) [13]; 0.1250 kg/ha into flood water)
2.0: herbicide rating (0-9) MOOVA ([14]; 0.0320 kg/ha into flood water) | herbicide rating (0-9) MOOVA ([14]; 0.0620 kg/ha into flood water)
6.0: herbicide rating (0-9) ECHORC ([2]; 0.0320 kg/ha into flood water) | herbicide rating (0-9) ORYSAT (rice tolerance) (ORYSAT (Rice, Tebonnet) [13]; 0.0620 kg/ha into flood water)
9.0: herbicide rating (0-9) CYPIR (CYPIR (Cyperus iria)) | herbicide rating (0-9) ECHORC ([2]; 0.0620 kg/ha into flood water) | IPOHE herbicidal rating ([4]; rate 0.0320 kg/ha) | IPOHE herbicidal rating ([4]; rate 0.0620 kg/ha) | IPOHE herbicidal rating ([4]; rate 0.1250 kg/ha) | Preemergence herbicidal rating ECHCG ([8]; Rate 0.2500 kg/ha) | Preemergence herbicidal rating SETVI (SETVI (Setaria viridis); Rate 0.0620 kg/ha) | Preemergence herbicidal rating SETVI (SETVI (Setaria viridis); Rate 0.1250 kg/ha) | Preemergence herbicidal rating SETVI (SETVI (Setaria viridis); Rate 0.2500 kg/ha) | ABUTH herbicidal rating ([9]; rate 0.0320 kg/ha) | ABUTH herbicidal rating ([9]; rate 0.0620 kg/ha) | ABUTH herbicidal rating ([9]; rate 0.1250 kg/ha) | AMBEL herbicidal rating ([10]; rate 0.0320 kg/ha) | AMBEL herbicidal rating ([10]; rate 0.0620 kg/ha) | AMBEL herbicidal rating ([10]; rate 0.1250 kg/ha) | CHEAL herbicidal rating ([12]; rate 0.1250 kg/ha) | herbicide rating (0-9) MOOVA ([14]; 0.1250 kg/ha into flood water)
